Laboratory results: patent publication US20250345446A1 (Draupnir Bio ApS, priority 2022, published 2025)
Where two headings read alike, the source gives them in different places. Residues, ends and D or L forms follow the SMILES beside them. *: point of attachment. Biotin = O=C1N[C@H]2[C@H](CS[C@H]2CCCCC(=O)*)N1

What was measured:
[1] = target: T1, soluble ectodomain of sortilin-6his (Homo sapiens, UniProt Q99523, V650M); test: MST binding to soluble ectodomain of sortilin-6his; conditions: MST, read-out: KD score, binding to sortilin (Kd)
T1 construct: the soluble ectodomain of sortilin-6his is measured by microscale thermophoresis (MST)
T1 sequence (Q99523 with tags, fused parts or gaps V650M): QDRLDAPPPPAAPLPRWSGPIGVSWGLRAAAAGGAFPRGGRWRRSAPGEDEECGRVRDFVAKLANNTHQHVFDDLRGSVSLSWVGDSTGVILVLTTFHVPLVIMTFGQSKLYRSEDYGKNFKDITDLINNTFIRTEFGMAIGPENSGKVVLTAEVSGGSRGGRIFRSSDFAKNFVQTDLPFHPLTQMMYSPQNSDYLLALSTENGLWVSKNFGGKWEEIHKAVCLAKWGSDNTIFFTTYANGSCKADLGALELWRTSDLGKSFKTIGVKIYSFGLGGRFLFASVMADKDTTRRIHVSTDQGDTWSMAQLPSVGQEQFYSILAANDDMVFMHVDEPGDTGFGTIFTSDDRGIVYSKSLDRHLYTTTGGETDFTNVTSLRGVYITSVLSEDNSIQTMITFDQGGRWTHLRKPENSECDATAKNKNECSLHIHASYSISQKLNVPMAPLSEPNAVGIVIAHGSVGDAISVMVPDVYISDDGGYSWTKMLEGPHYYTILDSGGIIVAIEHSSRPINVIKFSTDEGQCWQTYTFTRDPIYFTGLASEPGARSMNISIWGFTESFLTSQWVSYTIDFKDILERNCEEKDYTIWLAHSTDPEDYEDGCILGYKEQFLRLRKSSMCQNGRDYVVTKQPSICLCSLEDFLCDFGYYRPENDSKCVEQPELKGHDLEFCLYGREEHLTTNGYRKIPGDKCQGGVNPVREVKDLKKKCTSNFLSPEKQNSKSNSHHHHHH

[2] = test system: HEK293 cells expressing full length sortilin receptor; test: Cellular uptake of NA650 in HEK293/sortilin cells; type: cell-based; conditions: Table 6; NA650 (100 nM), 3 h, biotin warhead compounds
Protocol: Cellular uptake of NA650 was investigated in HEK293 cells expressing full length sortilin receptor (Petersen et. al.). Cells were seeded in poly-L-lysine coated 96-well plates (Perkin Elmer) (40K/well) in 50 μL culture medium (DMEM (Lonza)+10% FBS (SigmaAldrich)+1% penicillin-streptomycin (SigmaAldrich)+1% GlutaMAX (Gibco)+100 μg/mL Zeocin (Invitrogen)) and incubated overnight in cell incubator (37° C., humidified, 5% CO2).
Culture medium was replaced with assay medium (DMEM (Lonza)+10% fetal bovine serum (SigmaAldrich)+1% penicillin-streptomycin (SigmaAldrich)+1% GlutaMAX (Gibco)) containing NA650 (Invitrogen) (100 nM) (Thermo Fischer) and peptidic bifunctional compounds (9.8 nM to 10 μM). Cells were incubated for 3 h in cell incubator before they were washed in dPBS (Bionordika). The DyLight650 signal in the cell layer was detected using a fluorescence plate reader (BMG Labtech Clariostar).
Cellular uptake of NA650 was investigated in HEK293 cells expressing full length sortilin receptor using a methodology analogous to example 3.

[3] = target: T2, Streptavidin-d2 and Sortilin-6His (UniProt P22629+Q99523, V650M); test: TR-FRET ternary complex formation streptavidin / small molecule bifunctional compound / sortilin; type: binding; conditions: Table 5; 5 μM-0.6 pM, […] incubation
T2 construct: ternary complex formation composed of streptavidin, bifunctional compound and sortilin-6his

[4] = target: streptavidin, bifunctional compound and sortilin-6his (UniProt P22629+Q99523, V650M); test: TR-FRET ternary complex formation streptavidin / bifunctional peptide / sortilin-6his; conditions: Table 2; […] incubation, HTRF ratio 665/620 nm
Protocol: In these experiments, the compounds of interest were titrated over 24-point in a 384-well TTP LVDS plate (SPT Labtech) to a final buffer composition of 50 mM Bis-Tris Propane pH 8, 50 mM NaCl, 0.05% Tween20, with or without 10% DMSO using a Mosquito LV pipetting robot (SPT Labtech).
The reaction was allowed to incubate for 2.5 hours at room temperature, at which point the HTRF signal ratio at 665/620 nm was determined using a plate reader (ClarioStar, BMG Labtech). All reactions were run in triplicates and data was represented as HTRF ratio as a function of bifunctional compound concentration.

[5] = target: T3, Sortilin-6His (Homo sapiens (Human), UniProt Q99523 78-755); test: MST on labelled sortilin-6his ectodomain; KD score: ++ <100 nM, + 100-2000 nM
T3 construct: In MST it was labelled non-covalently with RED-tris-NTA; also called soluble ectodomain of sortilin-6his; fluorescent sortilin-6his
T3 sequence (Q99523 78-755 V650M limits assumed): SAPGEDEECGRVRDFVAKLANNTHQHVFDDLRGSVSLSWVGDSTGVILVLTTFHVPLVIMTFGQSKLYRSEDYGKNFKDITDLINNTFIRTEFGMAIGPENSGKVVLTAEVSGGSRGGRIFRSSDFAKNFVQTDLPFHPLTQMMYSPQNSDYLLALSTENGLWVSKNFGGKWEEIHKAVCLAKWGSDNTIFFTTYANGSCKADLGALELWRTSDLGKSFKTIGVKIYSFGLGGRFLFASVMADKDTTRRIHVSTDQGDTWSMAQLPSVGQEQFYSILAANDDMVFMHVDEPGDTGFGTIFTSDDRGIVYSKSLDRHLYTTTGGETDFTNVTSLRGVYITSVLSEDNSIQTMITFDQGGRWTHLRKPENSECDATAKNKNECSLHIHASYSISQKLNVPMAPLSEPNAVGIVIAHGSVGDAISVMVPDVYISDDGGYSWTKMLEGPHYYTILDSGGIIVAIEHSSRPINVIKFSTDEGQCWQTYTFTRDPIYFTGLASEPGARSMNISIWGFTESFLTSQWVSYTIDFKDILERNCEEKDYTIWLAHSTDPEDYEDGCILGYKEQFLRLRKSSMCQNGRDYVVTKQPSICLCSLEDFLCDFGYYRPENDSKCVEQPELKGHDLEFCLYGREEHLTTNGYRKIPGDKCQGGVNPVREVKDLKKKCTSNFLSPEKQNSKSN

[6] = target: T3, Sortilin-6His; test: TR-FRET (HTRF) ternary complex streptavidin-d2 / biotin-peptide / sortilin-6His; AUC score: + <5000, ++ >5000
[7] = Table 4, small molecule bifunctional compounds
[8] = Table 1, biotin-linker-peptide bifunctional compounds

Molecule	Kd [1, 7]	AUC score, target internalization [2]	AUC score, ternary complex formation [3]	Kd [1, 8]	AUC score, TR-FRET measurements of ternary complex formation [4]	also measured
CC(C)(C)CC[C@H](NC(=O)c1ccc(Oc2cccc(OCCOCCOCCOCCOCCOCCNC(=O)CCCC[C@@H]3SC[C@@H]4NC(=O)N[C@@H]43)c2)nc1)C(=O)O (stereo in doubt) [BF025]	10 to 250 nM	+ (AUC < 100)	+ (AUC < 25.000)			
CC(C)(C)CC[C@H](NC(=O)c1ccc(Oc2cccc(OCCOCCOCCOCCOCCOCCOCCOCCNC(=O)CCCC[C@@H]3SC[C@@H]4NC(=O)N[C@@H]43)c2)nc1)C(=O)O [BF017, (2S)-2-[[6-[3-[2-[2-[2-[2-[2-[2-[2-[2-[5-[(3aS,4S,6aR)-2-oxo-1,3,3a,4,6,6a-hexahydrothieno[3,4-d]imidazol-4-yl]pentanoylamino]ethoxy]ethoxy]ethoxy]ethoxy]ethoxy]ethoxy]ethoxy]ethoxy]phenoxy]pyridine-3-carbonyl]amino]-5,5-dimethyl-hexanoic acid]	1 to 10 nM	++ (AUC > 100)	+ (AUC < 25.000)			
CC(C)(C)CC[C@H](NC(=O)c1ccc(Oc2cccc(OCCOCCOCCOCCOCCOCCOCCNC(=O)CCCC[C@@H]3SC[C@@H]4NC(=O)N[C@@H]43)c2)nc1)C(=O)O [BF019, (2S)-2-[[6-[3-[2-[2-[2-[2-[2-[2-[2-[5-[(3aS,4S,6aR)-2-oxo-1,3,3a,4,6,6a-hexahydrothieno[3,4-d]imidazol-4-yl]pentanoyl-amino]ethoxy]ethoxy]ethoxy]ethoxy]ethoxy]ethoxy]ethoxy]phenoxy]pyridine-3-carbonyl]amino]-5,5-dimethyl-hexanoic acid]	1 to 10 nM	+ (AUC < 100)	+ (AUC < 25.000)			
CC(C)(C)CC[C@H](NC(=O)c1ccc(Oc2cccc3c(C(=O)NCCCNC(=O)CCOCCOCCOCCOCCNC(=O)CCCC[C@@H]4SC[C@@H]5NC(=O)N[C@@H]54)cccc23)nc1)C(=O)O [BF020, (2S)-2-[[6-[[5-[3-[3-[2-[2-[2-[2-[5-[(3aS,4S,6aR)-2-oxo-1,3,3a,4,6,6a-hexahydrothieno[3,4-d]imidazol-4-yl]pentanoylamino]ethoxy]ethoxy]ethoxy]ethoxy]propanoylamino]propylcarbamoyl]-1-naphthyl]oxy]pyridine-3-carbonyl]amino]-5,5-dimethyl-hexanoic acid]	10 to 250 nM	++ (AUC > 100)	++ (AUC > 25.000)			
CC(C)(C)CC[C@H](NC(=O)c1ccc(Oc2cccc(C(=O)NCCOCCOCCOCCOCCOCCOCCNC(=O)CCCC[C@@H]3SC[C@@H]4NC(=O)N[C@@H]43)c2)nc1)C(=O)O [BF023, (2S)-2-[[6-[3-[2-[2-[2-[2-[2-[2-[2-[5-[(3aS,4S,6aR)-2-oxo-1,3,3a,4,6,6a-hexahydrothieno[3,4-d]imidazol-4-yl]pentanoylamino]ethoxy]ethoxy]ethoxy]ethoxy]ethoxy]ethoxy]ethylcarbamoyl]phenoxy]pyridine-3-carbonyl]amino]-5,5-dimethyl-hexanoic acid]	10 to 250 nM	+ (AUC < 100)	+ (AUC < 25.000)			
CC(C)C[C@H](NC(=O)[C@H](CC(C)C)NC(=O)[C@H](CCC(N)=O)NC(=O)[C@H](CCCNC(=N)N)NC(=O)CNC(=O)[C@H](CO)NC(=O)CNC(=O)CNC(=O)CNC(=O)CNC(=O)[C@H](CO)NC(=O)CNC(=O)CNC(=O)CCCC[C@@H]1SC[C@@H]2NC(=O)N[C@@H]21)C(=O)O [compound 141] (Biotin-GGSGGGGSGRQLL-OH)				< 100 nM	+ (AUC < 5000)	
CC(C)C[C@H](NC(=O)[C@H](CC(C)C)NC(=O)[C@H](CCC(N)=O)NC(=O)[C@H](CCCNC(=N)N)NC(=O)[C@H](CO)NC(=O)CNC(=O)CNC(=O)CNC(=O)CNC(=O)[C@H](CO)NC(=O)CNC(=O)CNC(=O)CNC(=O)CNC(=O)[C@H](CO)NC(=O)CNC(=O)CNC(=O)CCCC[C@@H]1SC[C@@H]2NC(=O)N[C@@H]21)C(=O)O [compound 142] (Biotin-GGSGGGGSGGGGSRQLL-OH)				< 100 nM	+ (AUC < 5000)	
CC(C)C[C@H](NC(=O)[C@H](CC(C)C)NC(=O)[C@H](CCC(N)=O)NC(=O)[C@H](Cc1ccccc1)NC(=O)CNC(=O)[C@H](CO)NC(=O)CNC(=O)CNC(=O)CNC(=O)CNC(=O)[C@H](CO)NC(=O)CNC(=O)CNC(=O)CCCC[C@@H]1SC[C@@H]2NC(=O)N[C@@H]21)C(=O)O [compound 145] (Biotin-GGSGGGGSGFQLL-OH)				< 100 nM	+ (AUC < 5000)	
CC(C)C[C@H](NC(=O)[C@H](CC(C)C)NC(=O)[C@H](CCC(N)=O)NC(=O)[C@H](Cc1ccccc1)NC(=O)[C@H](CO)NC(=O)CNC(=O)CNC(=O)CNC(=O)CNC(=O)[C@H](CO)NC(=O)CNC(=O)CNC(=O)CNC(=O)CNC(=O)[C@H](CO)NC(=O)CNC(=O)CNC(=O)CCCC[C@@H]1SC[C@@H]2NC(=O)N[C@@H]21)C(=O)O [compound 146] (Biotin-GGSGGGGSGGGGSFQLL-OH)				100 to 2000 nM	++ (AUC > 5000)	
CC(C)C[C@H](NC(=O)[C@H](CC(C)C)NC(=O)[C@H](CCC(N)=O)NC(=O)[C@H](Cc1ccccc1)NC(=O)CNC(=O)CNC(=O)CNC(=O)[C@H](CO)NC(=O)CNC(=O)CNC(=O)CNC(=O)CNC(=O)[C@H](CO)NC(=O)CNC(=O)CNC(=O)CCCC[C@@H]1SC[C@@H]2NC(=O)N[C@@H]21)C(=O)O [compound 148] (Biotin-GGSGGGGSGGGFQLL-OH)				100 to 2000 nM	++ (AUC > 5000)	
CC(C)C[C@H](NC(=O)[C@H](CC(C)C)NC(=O)[C@H](CCC(N)=O)NC(=O)[C@H](CCCNC(=N)N)NC(=O)CNC(=O)CNC(=O)CNC(=O)[C@H](CO)NC(=O)CNC(=O)CNC(=O)CNC(=O)CNC(=O)[C@H](CO)NC(=O)CNC(=O)CNC(=O)CCCC[C@@H]1SC[C@@H]2NC(=O)N[C@@H]21)C(=O)O [compound 149] (Biotin-GGSGGGGSGGGRQLL-OH)				100 to 2000 nM	+ (AUC < 5000)	
Biotin-GGSGGGGSGGGFQLL-OH (SMILES CC(C)C[C@H](NC(=O)[C@H](CC(C)C)NC(=O)[C@H](CCC(N)=O)NC(=O)[C@H](Cc1ccccc1)NC(=O)CNC(=O)CNC(=O)CNC(=O)[C@H](CO)NC(=O)CNC(=O)CNC(=O)CNC(=O)CNC(=O)[C@H](CO)NC(=O)CNC(=O)CNC(=O)CCCC[C@@H]1SC[C@@H]2NC(=O)N[C@@H]21)C(=O)O) [Biotin-GGSGGGGSGGGFQLL-OH]						KD [5]: 100 to 2000 nM; AUC of TR-FRET (HTRF ratio vs compound concentration) for ternary complex formation [6]: > 5000 auc
Biotin-GGSGGGGSGGGRQLL-OH (SMILES CC(C)C[C@H](NC(=O)[C@H](CC(C)C)NC(=O)[C@H](CCC(N)=O)NC(=O)[C@H](CCCNC(=N)N)NC(=O)CNC(=O)CNC(=O)CNC(=O)[C@H](CO)NC(=O)CNC(=O)CNC(=O)CNC(=O)CNC(=O)[C@H](CO)NC(=O)CNC(=O)CNC(=O)CCCC[C@@H]1SC[C@@H]2NC(=O)N[C@@H]21)C(=O)O) [Biotin-GGSGGGGSGGGRQLL-OH]						KD [5]: 100 to 2000 nM; AUC of TR-FRET (HTRF ratio vs compound concentration) for ternary complex formation [6]: < 5000 auc
Biotin-GGSGGGGSGGGGSRQLL-OH (SMILES CC(C)C[C@H](NC(=O)[C@H](CC(C)C)NC(=O)[C@H](CCC(N)=O)NC(=O)[C@H](CCCNC(=N)N)NC(=O)[C@H](CO)NC(=O)CNC(=O)CNC(=O)CNC(=O)CNC(=O)[C@H](CO)NC(=O)CNC(=O)CNC(=O)CNC(=O)CNC(=O)[C@H](CO)NC(=O)CNC(=O)CNC(=O)CCCC[C@@H]1SC[C@@H]2NC(=O)N[C@@H]21)C(=O)O) [Biotin-GGSGGGGSGGGGSRQLL-OH]						KD [5]: < 100 nM; AUC of TR-FRET (HTRF ratio vs compound concentration) for ternary complex formation [6]: < 5000 auc
Biotin-GGSGGGGSGGGGSFQLL-OH (SMILES CC(C)C[C@H](NC(=O)[C@H](CC(C)C)NC(=O)[C@H](CCC(N)=O)NC(=O)[C@H](Cc1ccccc1)NC(=O)[C@H](CO)NC(=O)CNC(=O)CNC(=O)CNC(=O)CNC(=O)[C@H](CO)NC(=O)CNC(=O)CNC(=O)CNC(=O)CNC(=O)[C@H](CO)NC(=O)CNC(=O)CNC(=O)CCCC[C@@H]1SC[C@@H]2NC(=O)N[C@@H]21)C(=O)O) [Biotin-GGSGGGGSGGGGSFQLL-OH]						KD [5]: 100 to 2000 nM; AUC of TR-FRET (HTRF ratio vs compound concentration) for ternary complex formation [6]: > 5000 auc
